Test systems include SK-MEL-5 melanoma; LOX IMVI melanoma; MDA-MB-435; SK-MEL-2 melanoma; U251 CNS; TK-10 renal; SNB-19 CNS; MDA-MB-231 breast; RPMI-8226 leukemia; DU-145 prostate.
Holding throughout (assay): inhibition of tumour cell growth, NCI panel, 48 h

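Following 48 hours of exposure in 96-well plates, responses at five concentrations were used to interpolate endpoints linearly. Abbreviation: GI50, concentration required for 50% inhibition of growth. At the TGI there is no net growth.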

For `O=C(CC12CC3CC(CC(C3)C1)C2)NCCOCCOCCNC(=O)c1cc2c(o1)C(=O)c1ccccc1C2=O`, the GI50 in the test on SK-MEL-5 melanoma is 0.176 µM; in the test with LOX IMVI melanoma, 0.526 µM; in the test with MDA-MB-435, 0.185 µM; in the test on SK-MEL-2 melanoma it was 1.6 µM; in the test on U251 CNS, 1.37 µM; with TK-10 renal, 3.06 µM. Further, the GI50 is 0.841 µM in the test with SNB-19 CNS, 1.53 µM in the test on MDA-MB-231 breast, 1.56 µM with RPMI-8226 leukemia and 0.225 µM in the test on DU-145 prostate. The TGI with SK-MEL-5 melanoma worked out at 0.328 µM; in the test on LOX IMVI melanoma, 2.03 µM; in the test on MDA-MB-435 it was 0.343 µM; in the test with SK-MEL-2 melanoma, 3.86 µM; in the test on U251 CNS it was 2.81 µM; in the test on TK-10 renal it was 5.27 µM. Also, the TGI worked out at 3.11 µM with SNB-19 CNS, 5.68 µM with MDA-MB-231 breast, 4.43 µM in the test on RPMI-8226 leukemia and 0.457 µM with DU-145 prostate.
For `CCOc1ccc(NC(=O)Nc2cc(C(C)C)ccc2C)cc1`, the GI50 is more than 51.9 µM in the test on SK-MEL-5 melanoma; 8.9 µM in the test on LOX IMVI melanoma; 17.6 µM in the test with MDA-MB-435; 18 µM in the test on SK-MEL-2 melanoma; 5.89 µM in the test with U251 CNS; 2.21 µM with TK-10 renal. Moreover, the GI50 was 10.4 µM in the test with SNB-19 CNS, 3.79 µM in the test on MDA-MB-231 breast, 10.9 µM in the test with RPMI-8226 leukemia and 9.57 µM in the test on DU-145 prostate. The TGI in the test on SK-MEL-5 melanoma was more than 100 µM; in the test on LOX IMVI melanoma it was more than 100 µM; in the test on MDA-MB-435, more than 100 µM; in the test on SK-MEL-2 melanoma, 55.6 µM; with U251 CNS it was 17.8 µM; in the test with TK-10 renal it was 6.61 µM. Further, the TGI is 39 µM in the test with SNB-19 CNS, 15.8 µM with MDA-MB-231 breast, more than 65.8 µM with RPMI-8226 leukemia and more than 58.4 µM in the test on DU-145 prostate.
As for `O=C1OCC(c2ccc(O)c(O)c2)=C1c1cc(O)c(O)c(O)c1`, the GI50 in the test on SK-MEL-5 melanoma is 38.2 µM; in the test on LOX IMVI melanoma, 19.1 µM; in the test with MDA-MB-435, 17 µM; with U251 CNS, 17.9 µM; with TK-10 renal, 73.1 µM; with SNB-19 CNS, 25.3 µM. Also, the figures for the GI50 with MDA-MB-231 breast, in the test on RPMI-8226 leukemia and in the test with DU-145 prostate were 15.2 µM, 26.2 µM and 32.7 µM, respectively. The TGI was more than 100 µM with SK-MEL-5 melanoma; 36.8 µM with LOX IMVI melanoma; 32.5 µM in the test on MDA-MB-435; 32.7 µM in the test on U251 CNS; more than 100 µM in the test on TK-10 renal; more than 100 µM in the test on SNB-19 CNS. For the same compound, the TGI was 31 µM in the test on MDA-MB-231 breast, 79 µM with RPMI-8226 leukemia and more than 100 µM in the test with DU-145 prostate.
As for `COCCNCC(O)Cn1c2ccc(Cl)cc2c2cc(Cl)ccc21` (configuration not stated), the GI50 with SK-MEL-5 melanoma was 1.71 µM; in the test with MDA-MB-435, 1.7 µM; with SK-MEL-2 melanoma, 2.16 µM; in the test on U251 CNS it was 1.94 µM; in the test with TK-10 renal, 1.79 µM; in the test with SNB-19 CNS, 3.48 µM. The GI50 in the test on MDA-MB-231 breast was 1.67 µM; with RPMI-8226 leukemia, 2.14 µM; in the test on DU-145 prostate, 2.12 µM. For the same compound, the TGI worked out at 3.18 µM in the test with SK-MEL-5 melanoma; 3.19 µM in the test on MDA-MB-435; 4.18 µM in the test on SK-MEL-2 melanoma; 3.93 µM in the test with U251 CNS; 3.37 µM with TK-10 renal; 16.6 µM in the test with SNB-19 CNS. In addition, the TGI in the test on MDA-MB-231 breast stood at 3.4 µM; with RPMI-8226 leukemia, 5.25 µM; in the test with DU-145 prostate, 4.05 µM.
In the case of `Cc1nc2sc(C(=O)Nc3cccc4ccccc34)c(N)c2cc1C(C)O` (configuration not stated), the GI50 in the test with SK-MEL-5 melanoma is 0.185 µM; with LOX IMVI melanoma, 0.264 µM; in the test on SK-MEL-2 melanoma it was 0.219 µM; with U251 CNS it was 0.227 µM; with TK-10 renal, 32.2 µM; in the test with SNB-19 CNS, 0.244 µM. Besides, the GI50 was 0.751 µM in the test on MDA-MB-231 breast, 0.223 µM in the test on RPMI-8226 leukemia and 0.247 µM with DU-145 prostate. Also, the TGI with SK-MEL-5 melanoma was 5.81 µM; in the test on LOX IMVI melanoma, more than 50 µM; in the test with SK-MEL-2 melanoma it was more than 50 µM; with U251 CNS, more than 50 µM; in the test with TK-10 renal it was more than 50 µM; with SNB-19 CNS, more than 50 µM. Moreover, the TGI with MDA-MB-231 breast, in the test with RPMI-8226 leukemia and with DU-145 prostate was more than 50 µM throughout.
As for `Cc1ccc(S(=O)(=O)N(C)C)cc1[N+](=O)[O-]`, the GI50 in the test with SK-MEL-5 melanoma, in the test on LOX IMVI melanoma, in the test on MDA-MB-435, in the test with U251 CNS, in the test with TK-10 renal and in the test with SNB-19 CNS was more than 100 µM throughout. For the same compound, the GI50 with MDA-MB-231 breast, in the test on RPMI-8226 leukemia and with DU-145 prostate was more than 100 µM each time. For the same compound, the TGI in the test with SK-MEL-5 melanoma, in the test with LOX IMVI melanoma, in the test with MDA-MB-435, with U251 CNS, in the test on TK-10 renal and in the test on SNB-19 CNS was more than 100 µM in each case. The TGI in the test on MDA-MB-231 breast, in the test on RPMI-8226 leukemia and with DU-145 prostate was more than 100 µM throughout.

The record behind these values is PubChem BioAssay (NCI).
